Reference: paper PMC12766724, “Synthesis, Anthelmintic Activity, and Mechanism of Action of 5‑Aryl‑1H‑indoles” (Journal of Agricultural and Food Chemistry, 2025)

What was measured:
wild-type C. elegans = tested on: wild-type C. elegans; set-up: method as in previously published data; conditions: earlier larval stages, longer exposure times; ref previously published data; cited from earlier work
[1] = tested on: mitochondrial membrane potential of C. elegans young adults; assay: Mitochondrial membrane potential measurement; type: in vivo, Caenorhabditis elegans; conditions: 100 μM; 24 h
Procedure: After 24 h, the compounds were washed away. Then, the mitochondrial membrane potential was measured using a specialized fluorescent dye (kit MAK147, Sigma-Aldrich). The kit was used according to the manufacturer’s instructions with modified incubation temperature and time (20 °C, 4 h) to account for the fact that living intact worms were used instead of cell cultures. , Dyed worms (approximately 200 per well) were distributed onto a black 96-well plate, and the fluorescence was measured using a Tecan Infinite 200 Pro plate reader.
Determining the mechanism of action of compounds is always challenging; however, the nature of their effect, as well as the structural similarity to compounds with known properties, can provide useful insights. One of our hypotheses was that the compounds might interfere with energy production. We based this assumption on the behavior of compound-treated worms (delayed development, lower fecundity, and relatively rapid decrease in motility rates but not necessarily death). Impaired mitochondrial function would be accompanied by a decrease in mitochondrial membrane potential (MMP).

[2] = tested on: C. elegans complex II mutant RP2700; assay: Scoring of developmental rates, L1 exposed 5 days; type: in vivo, Caenorhabditis elegans
Description: (§1) Dead or mostly immobile worms, arrested at the L1 stage, received a score of 1. Populations with severely delayed development were scored as 2. More developmentally advanced, but still obviously delayed worms were given the score of 3. Adult worms that produce a noticeably lower number of progeny received a score of 4. Healthy worms that reproduce normally (i.e., hundreds of eggs and larvae are present) were scored as 5 (see Figure C for representative images). In a typical, correctly prepared experiment, vehicle-treated populations should receive a score of 5, while worms treated with ivermectin (positive control) should receive a score of 1. […]

[3] = tested on: C. elegans complex II mutant RP2699; assay: Scoring of developmental rates, L1 exposed 5 days; type: in vivo, Caenorhabditis elegans
Description: as §1

[4] = tested on: C. elegans complex II mutant RP2702; assay: Scoring of developmental rates, L1 exposed 5 days; type: in vivo, Caenorhabditis elegans
Description: as §1

[5] = tested on: C. elegans wild-type and MCII mutants; assay: Recovery of pretreated worms on WMicrotracker ONE; type: in vivo, Caenorhabditis elegans; conditions: 5 or 10 μM for 72 h, then wash-out and recovery
Procedure: (§2) Briefly, for evaluation of the acute effect of the compounds, age-synchronized young adults of each strain, kept in S complete medium supplemented with E. coli OP50 (3 mg/mL, fresh weight), were transferred onto microtiter plates (96-well, U bottom), and their initial motility was measured for 30 min. […] Afterward, the compounds were washed away, and worms, supplemented with fresh liquid media and food, were distributed onto 96-well plates and allowed to recover. Their activity was measured using WMicrotracker ONE at the indicated time points.
C. elegans L1 larvae were exposed to 5 or 10 μM of the compounds for 72 h, after which the compounds were washed away, and the recovery of the nematodes was evaluated using WMicrotracker.

[6] = tested on: C. elegans wild-type and MCII mutant strains; assay: Scoring of developmental rates, comparison of strains; type: in vivo, Caenorhabditis elegans; conditions: L1 exposed 5 days
Description: Dead or mostly immobile worms, arrested at the L1 stage, received a score of 1. Populations with severely delayed development were scored as 2. More developmentally advanced, but still obviously delayed worms were given the score of 3. Adult worms that produce a noticeably lower number of progeny received a score of 4. Healthy worms that reproduce normally (i.e., hundreds of eggs and larvae are present) were scored as 5 (see Figure C for representative images). In a typical, correctly prepared experiment, vehicle-treated populations should receive a score of 5, while worms treated with ivermectin (positive control) should receive a score of 1.
We attribute this discrepancy to methodological differences: in previous studies, earlier larval stages, longer exposure times, and different evaluation methods, possibly more sensitive than WMicrotracker, were used.

C. elegans N2 = assay: Scoring of developmental rates, L1 exposed 5 days; type: in vivo, Caenorhabditis elegans
Description: as §1

[7] = tested on: C. elegans MCII mutant RP2699; assay: Acute motility of young adults on WMicrotracker ONE; type: in vivo, Caenorhabditis elegans; conditions: 100 μM; 24 h
Procedure: as §2, with “The effect of compounds on C. elegans N2 and SDH mutant strains was measured in a similar manner. Briefly,” for “Briefly,”
(§3) To experimentally support this promising initial finding, we tested the effect of i-19 against several C. elegans MCII mutant strains. These nematodes carry point mutations that result in amino acid changes in regions of subunits SDHC and SDHD that contribute to the formation of the ubiquinone-binding pocket, thereby influencing its shape and the ability of inhibitors to interact with the protein. […] The compounds were tested in multiple setups. At first, young adults were exposed to higher doses (100, 50, and 10 μM) of the compounds for up to 48 h, and changes in motility were evaluated using WMicrotracker. For both compounds, we observed a less pronounced decrease in movement rates of MCII mutants compared to wild-type worms, in both a dose- and time-dependent manner (Figure ).

[8] = tested on: C. elegans MCII mutant RP2702; assay: as above; type: in vivo, Caenorhabditis elegans; conditions: 100 μM; 24 h
Procedure: as §2, with “The effect of compounds on C. elegans N2 and SDH mutant strains was measured in a similar manner. Briefly,” for “Briefly,”
as §3

C. elegans wild-type N2 = assay: as above; type: in vivo, Caenorhabditis elegans; conditions: 100 μM; 24 h
Procedure: as §2, with “The effect of compounds on C. elegans N2 and SDH mutant strains was measured in a similar manner. Briefly,” for “Briefly,”
as §3

[9] = tested on: C. elegans MCII mutant RP2700; assay: as above; type: in vivo, Caenorhabditis elegans; conditions: 100 μM; 24 h
Procedure: as §2, with “The effect of compounds on C. elegans N2 and SDH mutant strains was measured in a similar manner. Briefly,” for “Briefly,”
as §3

O=C(NCCc1ncc(C(F)(F)F)cc1Cl)c1ccccc1C(F)(F)F [fluopyram, reference compound]
concentrations that strongly affect wild-type C. elegans (wild-type C. elegans): below 1 μM
MMP signal lower than in vehicle-treated control animals [1]: ~85%
mean score (1-5) ([2]; 0.012 µM): 5
mean score (1-5) ([2]; 0.024 µM): 5
mean score (1-5) ([2]; 0.049 µM): 5
mean score (1-5) ([2]; 0.195 µM): 4.778
mean score (1-5) ([2]; 0.391 µM): 4.444
mean score (1-5) ([2]; 0.781 µM): 3.556
mean score (1-5) ([2]; 1.563 µM): 3.667
mean score (1-5) ([2]; 3.125 µM): 2.444
mean score (1-5) ([2]; 6.25 µM): 1.222
mean score (1-5) ([2]; 12.5 µM): 1
mean score (1-5) ([2]; 25 µM): 1.333
mean score (1-5) ([2]; 50 µM): 1
mean score (1-5) ([2]; 100 µM): 1
mean score (1-5) ([3]; 0.012 µM): 4.667
mean score (1-5) ([3]; 0.024 µM): 4.444
mean score (1-5) ([3]; 0.049 µM): 4
mean score (1-5) ([3]; 0.195 µM): 4.556
mean score (1-5) ([3]; 0.391 µM): 4.444
mean score (1-5) ([3]; 0.781 µM): 3.889
mean score (1-5) ([3]; 1.563 µM): 3.111
mean score (1-5) ([3]; 3.125 µM): 3.333
mean score (1-5) ([3]; 6.25 µM): 1.222
mean score (1-5) ([3]; 12.5 µM): 1
mean score (1-5) ([3]; 25 µM): 1
mean score (1-5) ([3]; 50 µM): 1.222
mean score (1-5) ([3]; 100 µM): 1
mean score (1-5) ([4]; 0.012 µM): 5
mean score (1-5) ([4]; 0.024 µM): 5
mean score (1-5) ([4]; 0.049 µM): 5
mean score (1-5) ([4]; 0.195 µM): 4.889
mean score (1-5) ([4]; 0.391 µM): 4.667
mean score (1-5) ([4]; 0.781 µM): 4.111
mean score (1-5) ([4]; 1.563 µM): 3.556
mean score (1-5) ([4]; 3.125 µM): 3.111
mean score (1-5) ([4]; 6.25 µM): 2.333
mean score (1-5) ([4]; 12.5 µM): 1
mean score (1-5) ([4]; 25 µM): 1
mean score (1-5) ([4]; 50 µM): 1
mean score (1-5) ([4]; 100 µM): 1
resistance of MCII mutants compared to wild-type [5]: increased resistance of the MCII mutants
concentrations at which all strains were severely affected [6]: > 6.25 µM
mean score (1-5) (C. elegans N2; 0.012 µM): 4.667
mean score (1-5) (C. elegans N2; 0.024 µM): 4.333
mean score (1-5) (C. elegans N2; 0.049 µM): 3.667
mean score (1-5) (C. elegans N2; 0.195 µM): 2.778
mean score (1-5) (C. elegans N2; 0.391 µM): 2
mean score (1-5) (C. elegans N2; 0.781 µM): 1
mean score (1-5) (C. elegans N2; 1.563 µM): 1
mean score (1-5) (C. elegans N2; 3.125 µM): 1
mean score (1-5) (C. elegans N2; 6.25 µM): 1
mean score (1-5) (C. elegans N2; 12.5 µM): 1
mean score (1-5) (C. elegans N2; 25 µM): 1
mean score (1-5) (C. elegans N2; 50 µM): 1
mean score (1-5) (C. elegans N2; 100 µM): 1
decrease of mean activity counts [7]: 53%
decrease of mean activity counts [8]: 28%
decrease of mean activity counts (C. elegans wild-type N2): 60%
decrease of mean activity counts [9]: 16%
